Series [1] has as its system A2780 cells. Also noted: method as in doi:10.1016/j.ica.2016.11.021. Conditions: cited from earlier work.
Series [2] relates to Toledo-cis cells. More on the design: method as in doi:10.1016/j.ica.2016.11.021. The following applies: MTT, 72 h, reposted from previous paper; cited from earlier work.
Series [3] has as its system human lymphocytes. The series is described as follows: MTT cellular viability assay, normal lymphocytes. The class given is cell-based. Conditions: for times less toxic for normal lymphocytes in comparison to cisplatin: relative to cisplatin; for IC50: Lymphocytes, MTT, 72 h. The procedure:
The buffy coat fraction of peripheral blood from healthy donors was purchased from the Regional Blood Bank in Lodz, Poland. Mononuclear blood cells were isolated using Lympho-Sep tubes (Biological Industries, Israel). Lymphocytes were cultured in RPMI-1640 medium (Biological Industries, Israel) supplemented with 10% heat-inactivated fetal bovine serum, phytohemaglutinin M solution (PHA-M, Biological Industries), 5 mM Hepes, and 50 µg/mL gentamycin. The cancer cells were seeded in 24-well plates, with 1 mL of cell suspension per well, in the following densities: A2780—10^4 cells/mL; […] Lymphocytes were seeded in 48-well plates, 0.5 mL of cell suspension per well, at −2 × 10^5 cells/mL. The cultures were left overnight to adapt. The next day, the tested compounds were added, pre-dissolved in DMF, and then in a complete culture medium, at concentrations two-fold higher than the final ones. The resulting solutions were added to cell cultures to obtain the demanded concentration. Stock solutions of the compounds were freshly made before every experiment. The final concentration of the solvents in culture medium was 0.2% v/v. […] Then the culture medium was removed, and the purple formazan crystals were dissolved in DMSO. The absorbance was measured at 540 nm on a Spectrostar Nano spectrophotometer with a microplate reader (BMG Labtech, Ortenberg, Germany). The experiments were performed at least in triplicate. The results were transformed to relative values, as the percentage of the solvent control (assumed as 100%) to subtract any toxic effect of DMF.
(In general: Tetrazolium assays rely on reduction of a dye to a coloured formazan, in cell work by metabolically active cells.)

Series [4] relates to human lymphocytes. Also noted: method as in doi:10.1016/j.ica.2016.11.021. The following applies: MTT, 72 h, reposted from previous paper; cited from earlier work.
For series [5], the system named is A2780cis cells. Put plainly: MTT cellular viability assay, A2780cis. Type of series: cell-based, human. Conditions: for RF (IC50 A2780cis/IC50 A2780): Resistance factor defined as IC50(resistant)/IC50(sensitive); for IC50: A2780cis, MTT, 72 h. On the procedure:
(§1) Cell lines A2780 (human ovarian carcinoma, ECACC cat. No. 93112519), A2780cis (subline resistant to cisplatin, ECACC cat. […] All cell lines were maintained in a humidified incubator, at 37 °C and 5% CO2. The cell lines A2780 and A2780cis were grown as monolayers, and cultures were detached with trypsin and renewed every 3–4 days. Toledo and Toledo-cis were grown in suspension; the cultures were renewed every 3–4 days. The Toledo cell line was kindly provided by Prof. […] The cancer cells were seeded in 24-well plates, with 1 mL of cell suspension per well, in the following densities: A2780—10^4 cells/mL; […] Lymphocytes were seeded in 48-well plates, 0.5 mL of cell suspension per well, at −2 × 10^5 cells/mL. The cultures were left overnight to adapt. The next day, the tested compounds were added, pre-dissolved in DMF, and then in a complete culture medium, at concentrations two-fold higher than the final ones. The resulting solutions were added to cell cultures to obtain the demanded concentration. Stock solutions of the compounds were freshly made before every experiment. The final concentration of the solvents in culture medium was 0.2% v/v. […] Then the culture medium was removed, and the purple formazan crystals were dissolved in DMSO. The absorbance was measured at 540 nm on a Spectrostar Nano spectrophotometer with a microplate reader (BMG Labtech, Ortenberg, Germany). The experiments were performed at least in triplicate. The results were transformed to relative values, as the percentage of the solvent control (assumed as 100%) to subtract any toxic effect of DMF.

Series [6] relates to A2780cis cells. Also noted: method as in doi:10.1016/j.ica.2016.11.021. Conditions: MTT, 72 h, reposted from previous paper; cited from earlier work.
Series [7] concerns Toledo-cis cells. Put plainly: MTT cellular viability assay, Toledo-cis. The following applies: for RF (IC50 Toledo-cis/IC50 Toledo): Resistance factor defined as IC50(resistant)/IC50(sensitive); for IC50: Toledo-cis, MTT, 72 h. The class given is cell-based, human. The procedure:
as §1

Series [8] has as its system Toledo cells. Also noted: method as in doi:10.1016/j.ica.2016.11.021. Conditions: cited from earlier work.
Series [9] concerns A2780 and A2780cis cells. Put plainly: Annexin V apoptosis assay (flow cytometry). Type of series: cell-based, human. The following applies: 2 h and 4 h incubation, compared to untreated cells. On the procedure: The apoptotic cells were identified by flow cytometry using the Annexin-V/FITC (BDBiosciences, San Diego, CA, USA) assay according to the manufacturer’s instructions. […] PI only stains the nuclei of damaged cells with permeable plasma membranes. Briefly, the cells were incubated with tested compounds for 2 and 4 h. After incubation, the cells were washed twice with cold PBS and then resuspended in 100 μL of binding buffer, containing 2 μL of FITC conjugated annexin-V and 10 μg mL^−1 of PI (Becton-Dickinson, San Jose, CA, USA). Then, the preparations were incubated at room temperature, protected from light, for 15 min. Fluorescence was measured immediately after staining by flow cytometry using FL1 (green, annexin-V) and FL3 (red, PI) standard fluorescent filters.
In general terms: Flow cytometry measures light scatter and fluorescence of single cells or particles in a stream.

Series [10] concerns A2780 and A2780cis cells. Put plainly: Mitochondrial potential loss measurement (MitoTracker Red, flow cytometry). Conditions: 2 h and 4 h incubation. Type of series: cell-based, human. The procedure:
The loss of mitochondrial transmembrane potential (ΔΨm) occurs early during apoptosis and is often considered as a marker of apoptosis activated by the mitochondrial pathway. MitoTracker Red (Invitrogen, Waltham, MA, USA) dye was used as a probe for ΔΨm, which accumulates in the active mitochondria of living cells: 50 nM, 20 min incubation, at RT. The reduction of Δ Ψm was detected by flow cytometry as a decrease in red fluorescence of the dye in treated cells as compared to untreated cells.

Series [11] concerns A2780 cells. Put plainly: MTT cellular viability assay, A2780. Conditions: 72 h. The class given is cell-based, human. On the procedure: (§2) Cell lines A2780 (human ovarian carcinoma, ECACC cat. No. 93112519), A2780cis (subline resistant to cisplatin, ECACC cat. No. 93112517), Toledo (human diffuse large cell lymphoma, ATCC CRL-2631TM), and Toledo-cis (cisplatin-resistant subline obtained from Toledo in our laboratory) were cultured in RPMI-1640 medium (Biological Industries, Kibbutz Beit-Haemek, Israel) supplemented with 10% heat-inactivated fetal bovine serum, 5 mM Hepes, and 50 µg/mL gentamycin. All cell lines were maintained in a humidified incubator, at 37 °C and 5% CO2. The cell lines A2780 and A2780cis were grown as monolayers, and cultures were detached with trypsin and renewed every 3–4 days. Toledo and Toledo-cis were grown in suspension; the cultures were renewed every 3–4 days. The Toledo cell line was kindly provided by Prof. Piotr Smolewski from the Department of Experimental Hematology, Medical University of Lodz, ul Ciołkowskiego 2, 93–510 Łódź, Poland, on the conditions of collaboration. […]
(§3) The cancer cells were seeded in 24-well plates, with 1 mL of cell suspension per well, in the following densities: A2780—10^4 cells/mL; A2780cis—1.5 × 10^4 cells/mL; and Toledo and Toledo-cis—5 × 10^4 cells/mL. […] The absorbance was measured at 540 nm on a Spectrostar Nano spectrophotometer with a microplate reader (BMG Labtech, Ortenberg, Germany). […]

The test system of series [12] is Toledo cells. Put plainly: MTT cellular viability assay, Toledo. The class given is cell-based, human. The following applies: 72 h. On the procedure:
as §2, §3

Series [13] has as its system panel of cancer cells and human lymphocytes. The series is described as follows: MTT cellular viability assay, all tested cell lines. The class given is cell-based. The following applies: range over all tested cell lines, 72 h, read-out: IC50 values towards all tested cell lines. The procedure:
as §2, §3

Where [14] appears, read: A2780, MTT, 72 h, reposted from previous paper.
Where [15] appears, read: MTT, 72 h, reposted from previous paper.

Like-named read-outs stand apart in the source and are kept apart here. A value given as a limit tells only on which side of the number the result lay.

On to `COC1(c2ccccc2)Oc2ccccc2C(=O)C1=N.COC1(c2ccccc2)Oc2ccccc2C(=O)C1=N.[Cl][Ru][Cl]` (stereo not drawn) [134 (2), cis-dichlorobis(3-imino-2-methoxyflavanone)ruthenium(II)], for which the IC50 in [1] (setting [14]) is 2.5 ± 0.2 µM; in [2] it was 2.9 ± 0.2 µM; in [4] it was 3.4 ± 0.3 µM; in series [6] it was 4.6 ± 0.2 µM; in series [8] (setting [15]), 0.5 ± 0.1 µM. In series [3], the “times less toxic for normal lymphocytes in comparison to cisplatin” value (“times less toxic for normal lymphocytes” below) came out at 3 times. Further, in [5], the “RF (IC50 A2780cis/IC50 A2780)” value stood at 1.8. Further, in series [7], the “RF (IC50 Toledo-cis/IC50 Toledo)” value is on record as 5.8.
As to `CCOC1(c2ccccc2)Oc2ccccc2C(=O)C1=N.CCOC1(c2ccccc2)Oc2ccccc2C(=O)C1=N.[Cl][Ru][Cl]` (stereo not drawn) [138 (3), cis-dichlorobis(3-imino-2-ethoxyflavanone)ruthenium(II)], the IC50 in [1] (setting [14]) is 1.8 ± 0.1 µM; in series [2], 2.8 ± 0.1 µM; in series [4] it was 1.6 ± 0.1 µM; in series [6], 1.5 ± 0.4 µM; in series [8] (setting [15]), 0.6 ± 0.04 µM. In addition, the “times less toxic for normal lymphocytes” value in series [3] is 7 times. The “RF (IC50 A2780cis/IC50 A2780)” value in series [5] amounted to 0.8. Besides, the “RF (IC50 Toledo-cis/IC50 Toledo)” value in [7] stood at 4.6.
In the case of `N.N.[Cl][Pt][Cl]` [Cisplatin (1), cis-diamminedichloroplatinum (II), reference compound], in series [9], the “percentage of Ann-V positive cells” value is on record as “did not cause similar changes”. For the same compound, the IC50 is 0.2 ± 0.1 µM in series [1] (setting [14]); < 1 µM in series [1] (A2780, text value); 8.3 ± 0.6 µM in series [2]; 0.2 ± 0.1 µM in series [4]; 16.8 ± 1.5 µM in series [6]; 0.5 ± 0.07 µM in series [8] (setting [15]). Also, in series [8], the IC50 was < 1 µM. Besides, the “loss of mitochondrial membrane potential” value in series [10] is “much lower influence”. In series [5], the “RF (IC50 A2780cis/IC50 A2780)” value turned out to be 84. Besides, the figures for the “RF (IC50 Toledo-cis/IC50 Toledo)” value in series [7] and in [7] (listed as cisplatin) were 17 and “about 17”, respectively.
Turning to `Nc1c(-c2ccccc2)oc2ccccc2c1=O` [Ligand, 3-aminoflavone, reference compound], the IC50 is > 100 µM in series [3] (Homo sapiens, Lymphocyte); > 100 µM in [11] (Homo sapiens); > 100 µM in series [5] (Homo sapiens); > 100 µM in [7] (Homo sapiens); > 100 µM in series [12] (Homo sapiens).
With `Nc1c(-c2ccccc2)oc2ccccc2c1=O.Nc1c(-c2ccccc2)oc2ccccc2c1=O.[Cl][Pt][Cl]` [TCAP(4), trans-dichlorobis(3-aminoflavone)platinum(II)], in series [9], the “percentage of Ann-V positive cells” value is “did not cause similar changes”. In series [10], the “loss of mitochondrial membrane potential” value is on record as “much lower influence”. The IC50 was 11.9 ± 0.7 µM in [3]; 6.5 to 15.1 µM in series [13]; 6.5 ± 0.3 µM in series [11]; 15.1 ± 0.6 µM in series [5]; 12.6 ± 1.2 µM in [7]; 8.8 ± 0.8 µM in [12]. Moreover, the “times less toxic for normal lymphocytes” value in series [3] came out at 60 times. In addition, in [5], the “RF (IC50 A2780cis/IC50 A2780)” value is 2.3. In addition, in series [7], the “RF (IC50 Toledo-cis/IC50 Toledo)” value is 1.4.

By IC50 is commonly meant the concentration needed to halve the response being measured.

Source of the values: paper PMC8306828 (International Journal of Molecular Sciences, 2021).
